For one experiment, the target named is T1, Mer (Homo sapiens, UniProt Q12866).
T1 construct: purchased Life Technologies
T1 sequence (Q12866 21-999): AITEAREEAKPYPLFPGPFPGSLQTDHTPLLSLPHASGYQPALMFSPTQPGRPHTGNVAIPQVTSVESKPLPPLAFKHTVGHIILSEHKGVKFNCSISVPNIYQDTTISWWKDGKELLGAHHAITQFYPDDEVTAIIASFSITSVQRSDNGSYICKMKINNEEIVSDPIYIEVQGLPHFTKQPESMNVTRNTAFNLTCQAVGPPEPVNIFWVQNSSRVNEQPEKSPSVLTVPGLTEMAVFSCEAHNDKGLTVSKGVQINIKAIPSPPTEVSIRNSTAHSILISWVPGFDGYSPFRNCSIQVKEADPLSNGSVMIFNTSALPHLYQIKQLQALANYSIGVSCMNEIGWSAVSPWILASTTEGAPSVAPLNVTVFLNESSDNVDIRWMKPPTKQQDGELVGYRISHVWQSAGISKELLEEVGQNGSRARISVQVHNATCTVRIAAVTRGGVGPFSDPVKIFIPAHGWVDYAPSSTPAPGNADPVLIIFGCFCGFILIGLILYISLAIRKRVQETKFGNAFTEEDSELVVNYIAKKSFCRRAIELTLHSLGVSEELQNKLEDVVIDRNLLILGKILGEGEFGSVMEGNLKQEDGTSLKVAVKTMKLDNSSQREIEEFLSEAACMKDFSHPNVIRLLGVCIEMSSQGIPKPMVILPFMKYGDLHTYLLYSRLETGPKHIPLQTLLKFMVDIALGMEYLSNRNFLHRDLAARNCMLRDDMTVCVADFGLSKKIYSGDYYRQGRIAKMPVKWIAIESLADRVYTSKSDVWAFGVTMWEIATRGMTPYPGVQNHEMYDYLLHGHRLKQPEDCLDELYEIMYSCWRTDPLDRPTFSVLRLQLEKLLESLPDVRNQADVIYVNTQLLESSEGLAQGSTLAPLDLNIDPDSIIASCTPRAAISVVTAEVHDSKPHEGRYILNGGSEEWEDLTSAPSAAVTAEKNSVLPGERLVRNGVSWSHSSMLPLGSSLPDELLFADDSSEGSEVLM
Kind of experiment: LanthaScreen Eu kinase binding assay for Mer. As to conditions: read-out: Mer kinase binding activity (Kd). In a few lines:
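Kd values come from control-normalized FRET loss, referenced to DMSO vehicle wells, after 1 h at room temperature. Each compound was serially diluted over eight steps in DMSO and competed against Tracer 236 (Alexa Fluor 647) for the kinase, which was tagged by a Eu anti-GST antibody.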
On the technique in general: Time-resolved FRET reads energy transfer from a long-lived donor to a nearby acceptor.

The target in a further experiment is CSF1R (Homo sapiens, UniProt P07333). Briefly: KINOMEscan competition binding assay for CSF1R. The conditions noted are these: for Kd: read-out: CSF1R kinase binding activity (Kd). Details: DNA tag for qPCR (not a peptide); host or cells: E. coli/T7 phage or HEK-293. In a few lines: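 Values are either % inhibition at 0.1 uM, relative to DMSO (100% Ctrl) and a control compound (0% Ctrl), or Kd from an 11-point 3-fold series fitted with Hill slope −1. DNA-tagged kinase binds immobilized ligand beads with compound for 1 h at room temperature, and eluted kinase is measured by qPCR.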
Sequence of CSF1R (P07333 20-972): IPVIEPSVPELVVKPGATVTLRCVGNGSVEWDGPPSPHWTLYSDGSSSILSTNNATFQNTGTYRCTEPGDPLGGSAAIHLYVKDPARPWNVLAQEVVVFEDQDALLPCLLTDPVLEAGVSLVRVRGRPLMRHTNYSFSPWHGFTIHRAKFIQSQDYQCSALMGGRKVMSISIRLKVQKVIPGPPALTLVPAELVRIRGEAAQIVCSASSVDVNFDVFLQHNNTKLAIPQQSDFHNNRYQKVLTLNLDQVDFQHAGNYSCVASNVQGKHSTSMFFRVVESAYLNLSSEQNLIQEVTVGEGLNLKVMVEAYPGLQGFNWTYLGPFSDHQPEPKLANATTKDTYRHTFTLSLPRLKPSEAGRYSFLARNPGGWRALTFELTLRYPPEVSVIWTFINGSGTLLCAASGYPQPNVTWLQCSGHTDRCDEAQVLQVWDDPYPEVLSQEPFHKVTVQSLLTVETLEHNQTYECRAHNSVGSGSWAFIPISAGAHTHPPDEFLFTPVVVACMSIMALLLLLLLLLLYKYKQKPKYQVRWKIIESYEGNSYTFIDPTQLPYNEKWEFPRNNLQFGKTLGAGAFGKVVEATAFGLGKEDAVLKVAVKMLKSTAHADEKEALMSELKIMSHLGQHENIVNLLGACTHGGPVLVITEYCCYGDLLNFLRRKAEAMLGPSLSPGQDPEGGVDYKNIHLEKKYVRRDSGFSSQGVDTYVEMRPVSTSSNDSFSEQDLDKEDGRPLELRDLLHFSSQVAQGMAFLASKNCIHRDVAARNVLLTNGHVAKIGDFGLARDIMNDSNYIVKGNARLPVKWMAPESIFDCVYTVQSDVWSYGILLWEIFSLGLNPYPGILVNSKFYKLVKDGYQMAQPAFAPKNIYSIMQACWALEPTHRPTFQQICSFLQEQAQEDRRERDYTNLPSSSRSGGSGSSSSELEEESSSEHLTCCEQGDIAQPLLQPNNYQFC

The mark [1] stands for this setting: read-out: CSF1R kinase binding activity, Percent (%) inhibition.
Setting [2] is: read-out: CSF1R kinase binding activity, Range.

The record followed here is patent US12162858B2, “Quinoline derivatives as inhibitors of AXL/MER RTK and CSF1R” (QURIENT CO., LTD., priority 2018, dated 2024).

Like-named read-outs stand apart in the source and are kept apart here.

In the case of `CCn1nc(C(=O)Nc2ccc(Oc3ccnc4cc(OC)c(OC)cc34)cn2)c(OCC(F)(F)F)c1C` [Compound 1], the Kd at Mer and on CSF1R was less than 100 nM in each case. Also, the inhibition at 0.1 µM was 96% at CSF1R (setting [1]) and no less than 80% at CSF1R (setting [2]).
Regarding `COc1cc2nccc(Oc3ccc(NC(=O)c4nn(C(C)C)c(C)c4OCC(F)(F)F)nc3)c2cc1OC` [Compound 2], the Kd (usually a measure of binding affinity in units of concentration) is less than 100 nM at Mer and 100 to 500 nM on CSF1R. Besides, the inhibition at 0.1 µM at CSF1R (setting [1]) was 89%; at CSF1R (setting [2]), no less than 80%.
On to `COc1cc2nccc(Oc3ccc(NC(=O)c4nn(C5CC5)c(C(C)=O)c4OCC(F)(F)F)nc3)c2cc1OC` [Compound 3], for which the Kd was less than 100 nM on Mer and 100 to 500 nM on CSF1R. Moreover, the inhibition at 0.1 µM at CSF1R (setting [1]) is 71%; on CSF1R (setting [2]), 50 to 80%.
For `COc1cc2nccc(Oc3ccc(NC(=O)c4nn(C5CCOC5)cc4OCC(F)(F)F)nc3)c2cc1OC` (stereo not drawn) [Compound 13] the same measures were less than 100 nM, less than 100 nM, 98% and no less than 80%.
The like results for `CCCn1cc(OCCF)c(C(=O)Nc2ccc(Oc3ccnc4cc(OC)c(OC)cc34)cn2)n1` [Compound 14] were, in that order, less than 100 nM, less than 100 nM, 98% and no less than 80%.
With `CCCn1cc(OCCC(O)CO)c(C(=O)Nc2ccc(Oc3ccnc4cc(OC)c(OC)cc34)cn2)n1` (stereo not drawn) [Compound 15], on Mer, the Kd is less than 100 nM. Besides, the inhibition at 0.1 µM at CSF1R (setting [1]) is 87%; at CSF1R (setting [2]), no less than 80%.
The like results for `COc1cc2nccc(Oc3ccc(NC(=O)c4nn(CC(C)O)cc4OCC(F)(F)F)nc3)c2cc1OC` (stereo not drawn) [Compound 17] were, in that order, less than 100 nM, 97% and no less than 80%.
The like results for `COc1cc2nccc(Oc3ccc(NC(=O)c4nn(CCCO)cc4OCC(F)(F)F)nc3)c2cc1OC` [Compound 18] were, in that order, less than 100 nM, 97% and no less than 80%.
For `COc1cc2nccc(Oc3ccc(NC(=O)c4nn(CC(C)=O)cc4OCC(F)(F)F)nc3)c2cc1OC` [Compound 19] the same measures were less than 100 nM, 97% and no less than 80%.
In the case of `CCC(=O)n1cc(OCC(F)(F)F)c(C(=O)Nc2ccc(Oc3ccnc4cc(OC)c(OC)cc34)cn2)n1` [Compound 20], at Mer, the Kd is less than 100 nM. Besides, the inhibition at 0.1 µM is 99% on CSF1R (setting [1]) and no less than 80% at CSF1R (setting [2]).
The like results for `COc1cc2nccc(Oc3ccc(NC(=O)c4nn(CC(C)C)cc4OCC(F)(F)F)nc3)c2cc1OC` [Compound 21] were, in that order, less than 100 nM, 95% and no less than 80%.
For `COc1cc2nccc(Oc3ccc(NC(=O)c4nn(C(C)(C)C)cc4OCC(F)(F)F)nc3)c2cc1OC` [Compound 22] the same measures were less than 100 nM, 93% and no less than 80%.
The like results for `CCCn1cc(NCC(F)(F)F)c(C(=O)Nc2ccc(Oc3ccnc4cc(OC)c(OC)cc34)cn2)n1` [Compound 23] were, in that order, less than 100 nM, 94% and no less than 80%.
For `COc1cc2nccc(Oc3ccc(NC(=O)c4nn(C5CCC5)cc4OCC(F)(F)F)nc3)c2cc1OC` [Compound 24], the Kd at Mer is less than 100 nM. In addition, the figures for the inhibition at 0.1 µM on CSF1R (setting [1]) and at CSF1R (setting [2]) were 96% and no less than 80%, respectively.
For `CCCn1cc(OCC(F)(F)F)c(C(=O)Nc2ccc(Oc3ccnc4cc(OC)c(OC)cc34)c(F)c2)n1` [Compound 25] the same measures were less than 100 nM, 87% and no less than 80%.
For `CCCn1cc(OCC(F)(F)F)c(C(=O)Nc2ccc(Oc3ccnc4cc(OC)c(OC)cc34)c(C)c2)n1` [Compound 26] the same measures were less than 100 nM, 94% and no less than 80%.
The like results for `CCCn1cc(OCC(F)(F)F)c(C(=O)Nc2ccc(Oc3ccnc4cc(OC)c(OC)cc34)cc2C)n1` [Compound 27] were, in that order, less than 100 nM, 58% and 50 to 80%.
Take `CCCn1cc(OCC(F)(F)F)c(C(=O)Nc2ccc(Oc3ccnc4cc(OC)c(OC)cc34)cc2F)n1` [Compound 28]: the Kd on Mer is less than 100 nM. Also, the inhibition at 0.1 µM is 90% on CSF1R (setting [1]) and no less than 80% on CSF1R (setting [2]).
`COc1cc2nccc(Oc3ccc(NC(=O)c4nn(C[C@@H](C)O)cc4OCC(F)(F)F)nc3)c2cc1OC` [Compound 29]: at Mer, the Kd was less than 100 nM. The inhibition at 0.1 µM on CSF1R (setting [1]) was 99%; at CSF1R (setting [2]), no less than 80%.
For `COc1cc2nccc(Oc3ccc(NC(=O)c4nn(C[C@H](C)O)cc4OCC(F)(F)F)nc3)c2cc1OC` [Compound 30] the same measures were less than 100 nM, 99% and no less than 80%.
With `CCCn1cc(OCCC(F)(F)F)c(C(=O)Nc2ccc(Oc3ccnc4cc(OC)c(OC)cc34)cn2)n1` [Compound 31], the Kd on Mer was less than 100 nM. The results for the inhibition at 0.1 µM at CSF1R (setting [1]) and on CSF1R (setting [2]) were 95% and no less than 80%, respectively.
Regarding `CCCn1cc(OCC(F)(F)F)c(C(=O)Nc2ccc(Oc3ccnc4cc(OC)c(OC)cc34)nn2)n1` [Compound 32], the Kd on Mer was less than 100 nM. The inhibition at 0.1 µM on CSF1R (setting [1]) was 95%; at CSF1R (setting [2]) it was no less than 80%.
With `COc1cc2nccc(Oc3ccc(NC(=O)c4nn(C)cc4OCC(F)(F)F)nc3)c2cc1OC` [Compound 33], the Kd on Mer was less than 100 nM. The results for the inhibition at 0.1 µM on CSF1R (setting [1]) and at CSF1R (setting [2]) were 98% and no less than 80%, respectively.
As to `CCCn1cc(N(C)CC2CCOCC2)c(C(=O)Nc2ccc(Oc3ccnc4cc(OC)c(OC)cc34)cn2)n1` [Compound 34], the Kd on Mer was 100 to 500 nM.
Turning to `CCCn1cc(OC(C)C)c(C(=O)Nc2ccc(Oc3ccnc4cc(OC)c(OC(F)(F)F)cc34)c(F)c2)n1` [Compound 35], the Kd at Mer is no less than 500 nM. Moreover, the inhibition at 0.1 µM at CSF1R (setting [1]) is 6%; at CSF1R (setting [2]), less than 50%.
As to `CCCCn1cc(OCC(F)(F)F)c(C(=O)Nc2ccc(Oc3ccnc4cc(OC)c(OC)cc34)cn2)n1` [Compound 36], at Mer, the Kd was less than 100 nM. The inhibition at 0.1 µM was 95% at CSF1R (setting [1]) and no less than 80% on CSF1R (setting [2]).
For `COc1cc2nccc(Oc3ccc(NC(=O)c4nn(C)cc4OCC(F)(F)F)cc3C)c2cc1OC` [Compound 37] the same measures were less than 100 nM, 97% and no less than 80%.
Consider `CCCn1cc(OCC(F)(F)F)c(C(=O)Nc2ccc(Oc3ccnc4cc(OC)c(OC)cc34)cc2)n1` [Compound 38], for which the Kd at Mer was less than 100 nM. Further, the inhibition at 0.1 µM at CSF1R (setting [1]) is 87%; on CSF1R (setting [2]) it was no less than 80%.
For `COc1cc2nccc(Oc3ccc(NC(=O)c4nn(CCC#N)cc4OCC(F)(F)F)nc3)c2cc1OC` [Compound 39] the same measures were less than 100 nM, 97% and no less than 80%.
Regarding `COc1cc2nccc(Oc3ccc(NC(=O)c4nn(C5CCCC5)cc4OCC(F)(F)F)nc3)c2cc1OC` [Compound 40], at Mer, the Kd is less than 100 nM. For the same molecule, the inhibition at 0.1 µM at CSF1R (setting [1]) is 94%; at CSF1R (setting [2]) it was no less than 80%.
Consider `CCCn1cc(OCCN(C)C)c(C(=O)Nc2ccc(Oc3ccnc4cc(OC)c(OC)cc34)cn2)n1` [Compound 177], for which, at Mer, the Kd lay in the range of 100 to 500 nM.
With `COc1cc2nccc(Oc3ccc(NC(=O)c4cc(C5CC5)cnc4OCC(F)(F)F)nc3)c2cc1OC` [Compound 178], on Mer, the Kd was less than 100 nM.
For the molecule `COc1cc2nccc(Oc3ccc(NC(=O)c4sc(C5CC5)cc4OCC(F)(F)F)nc3)c2cc1OC` [Compound 179], on Mer, the Kd is 100 to 500 nM.
